Test results: the NIST ThermoML archive (doi:10.1021/je400056z)

Assay: xn = mol fraction of the nth substance listed
Conditions: Liquid, Vibrating tube method

CCCCCCCCCCCCC [tridecane] + O=C=O
Conditions | mass density [kg/m3]
333.3 K, 17000 kPa, x2 = 0.2526 | 746.5
333.3 K, 18000 kPa, x2 = 0.0955 | 743.9
333.3 K, 18000 kPa, x2 = 0.2526 | 747.3
333.3 K, 19000 kPa, x2 = 0.0955 | 744.6
333.3 K, 19000 kPa, x2 = 0.2526 | 748.1
333.3 K, 20000 kPa, x2 = 0.0955 | 745.3
333.3 K, 20000 kPa, x2 = 0.2526 | 748.9
333.3 K, 21000 kPa, x2 = 0.0955 | 746.1
333.3 K, 21000 kPa, x2 = 0.2526 | 749.7
333.3 K, 22000 kPa, x2 = 0.0955 | 746.7
333.3 K, 22000 kPa, x2 = 0.2526 | 750.5
333.3 K, 23000 kPa, x2 = 0.0955 | 747.4
333.3 K, 23000 kPa, x2 = 0.2526 | 751.2
333.3 K, 24000 kPa, x2 = 0.0955 | 748.1
333.3 K, 24000 kPa, x2 = 0.2526 | 751.9
333.3 K, 25000 kPa, x2 = 0.0955 | 748.7
333.3 K, 25000 kPa, x2 = 0.2526 | 752.6
343.02 K, 8000 kPa, x2 = 0.5259 | 739.5
343.02 K, 9000 kPa, x2 = 0.5259 | 740.9
343.02 K, 10000 kPa, x2 = 0.5259 | 742.3
343.02 K, 11000 kPa, x2 = 0.5259 | 743.7
343.02 K, 12000 kPa, x2 = 0.5259 | 745.1
343.02 K, 13000 kPa, x2 = 0.5259 | 746.4
343.02 K, 14000 kPa, x2 = 0.5259 | 747.6
343.02 K, 15000 kPa, x2 = 0.5259 | 748.9
343.02 K, 16000 kPa, x2 = 0.5259 | 750.1
343.02 K, 17000 kPa, x2 = 0.5259 | 751.3
343.02 K, 18000 kPa, x2 = 0.5259 | 752.5
343.02 K, 19000 kPa, x2 = 0.5259 | 753.7
343.02 K, 20000 kPa, x2 = 0.5259 | 754.8
343.02 K, 21000 kPa, x2 = 0.5259 | 755.9
343.02 K, 22000 kPa, x2 = 0.5259 | 757
343.02 K, 23000 kPa, x2 = 0.5259 | 758.1
343.02 K, 24000 kPa, x2 = 0.5259 | 759.2
343.02 K, 25000 kPa, x2 = 0.5259 | 760.2
343.13 K, 15000 kPa, x2 = 0.8978 | 710.8
343.13 K, 16000 kPa, x2 = 0.8978 | 723.5
343.13 K, 17000 kPa, x2 = 0.8978 | 733.2
343.13 K, 18000 kPa, x2 = 0.8978 | 741.1
343.13 K, 19000 kPa, x2 = 0.8978 | 748
343.13 K, 20000 kPa, x2 = 0.8978 | 755
343.13 K, 21000 kPa, x2 = 0.8978 | 761.4
343.13 K, 22000 kPa, x2 = 0.8978 | 767.3
343.13 K, 23000 kPa, x2 = 0.8978 | 772.8
343.13 K, 24000 kPa, x2 = 0.8978 | 778
343.13 K, 25000 kPa, x2 = 0.8978 | 782.8
343.14 K, 9000 kPa, x2 = 0.0955 | 729.8
343.14 K, 9000 kPa, x2 = 0.2526 | 732.2
343.14 K, 10000 kPa, x2 = 0.0955 | 730.6
343.14 K, 10000 kPa, x2 = 0.2526 | 733.2
343.14 K, 11000 kPa, x2 = 0.0955 | 731.5
343.14 K, 11000 kPa, x2 = 0.2526 | 734.1
343.14 K, 12000 kPa, x2 = 0.0955 | 732.4
343.14 K, 12000 kPa, x2 = 0.2526 | 735
343.14 K, 13000 kPa, x2 = 0.0955 | 733.2
343.14 K, 13000 kPa, x2 = 0.2526 | 736
343.14 K, 14000 kPa, x2 = 0.0955 | 734.1
343.14 K, 14000 kPa, x2 = 0.2526 | 736.9
343.14 K, 15000 kPa, x2 = 0.0955 | 734.9
343.14 K, 15000 kPa, x2 = 0.2526 | 737.8
343.14 K, 16000 kPa, x2 = 0.0955 | 735.7
343.14 K, 16000 kPa, x2 = 0.2526 | 738.6
343.14 K, 17000 kPa, x2 = 0.0955 | 736.5
343.14 K, 17000 kPa, x2 = 0.2526 | 739.5
343.14 K, 18000 kPa, x2 = 0.0955 | 737.3
343.14 K, 18000 kPa, x2 = 0.2526 | 740.4
343.14 K, 19000 kPa, x2 = 0.0955 | 738.1
343.14 K, 19000 kPa, x2 = 0.2526 | 741.2
343.14 K, 20000 kPa, x2 = 0.0955 | 738.9
343.14 K, 20000 kPa, x2 = 0.2526 | 742
343.14 K, 21000 kPa, x2 = 0.0955 | 739.6
343.14 K, 21000 kPa, x2 = 0.2526 | 742.8
343.14 K, 22000 kPa, x2 = 0.0955 | 740.4
343.14 K, 22000 kPa, x2 = 0.2526 | 743.6
343.14 K, 23000 kPa, x2 = 0.0955 | 741.1
343.14 K, 23000 kPa, x2 = 0.2526 | 744.4
343.14 K, 24000 kPa, x2 = 0.0955 | 741.8
343.14 K, 24000 kPa, x2 = 0.2526 | 745.1
343.14 K, 25000 kPa, x2 = 0.0955 | 742.5
343.14 K, 25000 kPa, x2 = 0.2526 | 745.9
343.32 K, 14000 kPa, x2 = 0.7549 | 752.1
343.32 K, 15000 kPa, x2 = 0.7549 | 755.2
343.32 K, 16000 kPa, x2 = 0.7549 | 758
343.32 K, 17000 kPa, x2 = 0.7549 | 760.9
343.32 K, 18000 kPa, x2 = 0.7549 | 763.8
343.32 K, 19000 kPa, x2 = 0.7549 | 766.7
343.32 K, 20000 kPa, x2 = 0.7549 | 769.6
343.32 K, 21000 kPa, x2 = 0.7549 | 772.4
343.32 K, 22000 kPa, x2 = 0.7549 | 775.2
343.32 K, 23000 kPa, x2 = 0.7549 | 777.9
343.32 K, 24000 kPa, x2 = 0.7549 | 780.7
343.32 K, 25000 kPa, x2 = 0.7549 | 783.5
353.12 K, 9000 kPa, x2 = 0.0955 | 722.6
353.12 K, 9000 kPa, x2 = 0.2526 | 724.8
353.12 K, 10000 kPa, x2 = 0.0955 | 723.6
353.12 K, 10000 kPa, x2 = 0.2526 | 725.8
353.12 K, 11000 kPa, x2 = 0.0955 | 724.5
353.12 K, 11000 kPa, x2 = 0.2526 | 726.8
353.12 K, 12000 kPa, x2 = 0.0955 | 725.4
353.12 K, 12000 kPa, x2 = 0.2526 | 727.8
353.12 K, 13000 kPa, x2 = 0.0955 | 726.3
353.12 K, 13000 kPa, x2 = 0.2526 | 728.8
353.12 K, 14000 kPa, x2 = 0.0955 | 727.2
353.12 K, 14000 kPa, x2 = 0.2526 | 729.7
353.12 K, 15000 kPa, x2 = 0.0955 | 728.1
353.12 K, 15000 kPa, x2 = 0.2526 | 730.7
353.12 K, 16000 kPa, x2 = 0.0955 | 729
353.12 K, 16000 kPa, x2 = 0.2526 | 731.6
353.12 K, 17000 kPa, x2 = 0.0955 | 729.9
353.12 K, 17000 kPa, x2 = 0.2526 | 732.5
353.12 K, 18000 kPa, x2 = 0.0955 | 730.7
353.12 K, 18000 kPa, x2 = 0.2526 | 733.4
353.12 K, 19000 kPa, x2 = 0.0955 | 731.5
353.12 K, 19000 kPa, x2 = 0.2526 | 734.3
